The results in this text go back to patent US5134137A, “Cephalosporin antibiotics” (The Upjohn Company, priority 1990, dated 1992).

For data set [1], the system named is Bordetella bronchiseptica. In words: MIC, agar dilution, Bordetella bronchiseptica. The class given is cell-based. The following applies: Bordetella bronchiseptica; strain UC6313; read-out: MIC. A digest of the protocol: (§1)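 Each organism receives an inoculum of approx. 10^3–10^4 CFU, taken from a 5% CO2 BHI subculture standardised to 0.5 McFarland and diluted 1:20. It is spotted on Mueller-Hinton agar containing the compound, then incubated for 16–18 h at 37 °C with CO2.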
In general terms: In agar dilution, organisms are placed on agar that contains the substance at set levels.

For a further data set, the system named is Corynebacterium pyogenes. Description: MIC, agar dilution, Corynebacterium pyogenes. The class given is cell-based. The following applies: strain 213-2; read-out: MIC. The essentials:
as §1

The next data set concerns Staphylococcus aureus. In words: MIC, agar dilution, Staphylococcus aureus. It is filed as cell-based. The following applies: Staphylococcus aureus, read-out: MIC. A digest of the protocol:
as §1

A further data set deals with Pasteurella multocida. In words: MIC, agar dilution, Pasteurella multocida. The class given is cell-based. The following applies: Pasteurella multocida; strain UC9581; read-out: MIC. A digest of the protocol: as §1
The next data set deals with Streptococcus bovis. Description: MIC, agar dilution, Streptococcus bovis. It is filed as cell-based. The following applies: Streptococcus equinus; strain UC6281; read-out: MIC. The essentials: as §1
The subject of data set [2] is Streptococcus dysgalactiae. Description: MIC, agar dilution, Streptococcus dysgalactiae. It is filed as cell-based. The note with it: Streptococcus dysgalactiae; strain UC251; read-out: MIC. The essentials: as §1
The subject of another data set is Salmonella choleraesuis. In words: MIC, agar dilution, Salmonella choleraesuis. The class given is cell-based. The following applies: Salmonella enterica, read-out: MIC. A digest of the protocol:
as §1

The subject of data set [3] is Salmonella typhimurium. Description: MIC, agar dilution, Salmonella typhimurium. It is filed as cell-based. The following applies: Salmonella enterica, read-out: MIC. A digest of the protocol: as §1
Data set [4] is described as follows: Serum half life / duration of antibiotic action. The following applies: inferred from results against Salmonella typhimurium.
A further data set has as its system Pseudomonas aeruginosa. Description: MIC, agar dilution, Pseudomonas aeruginosa. The class given is cell-based. The following applies: Pseudomonas aeruginosa, ATCC27853; strain ATCC 27853; read-out: MIC. The essentials: as §1
A further data set has as its system Streptococcus uberis. In words: MIC, agar dilution, Streptococcus uberis. It is filed as cell-based. The note with it: Streptococcus uberis, read-out: MIC. A digest of the protocol: as §1
The subject of the next data set is Enterococcus faecium. In words: MIC, agar dilution, Enterococcus faecium. It is filed as cell-based. The note with it: Enterococcus faecium; strain UC241; read-out: MIC. A digest of the protocol:
(§2)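 Agar dilution in Mueller-Hinton agar with antibiotic dilutions of 128 to 0.0625 µg/ml added to molten agar; compound amounts corrected for base activity from batch purity. Spot inoculum was ~10^3–10^4 CFU from a 4–6 h BHI culture adjusted to 0.5 McFarland and diluted 1:20. Plates were read after 16–18 h at 37 °C under CO2.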

The subject of another data set is Escherichia coli. Description: MIC, agar dilution, Escherichia coli. The following applies: Escherichia coli, read-out: MIC. The class given is cell-based. The essentials:
as §1

In the next data set the test system is Micrococcus luteus. In words: MIC, agar dilution, Micrococcus luteus. It is filed as cell-based. The note with it: Micrococcus luteus; strain UC130; read-out: MIC. A digest of the protocol:
as §1

The test system of a further data set is Pasteurella hemolytica. Description: MIC (minimum inhibitory concentration), agar dilution, Pasteurella hemolytica. The class given is cell-based. The following applies: Pasteurella, read-out: MIC. The essentials:
as §1

For the next data set, the system named is Streptococcus suis. In words: MIC, agar dilution, Streptococcus suis. The following applies: Streptococcus suis; strain 650-2; read-out: MIC. It is filed as cell-based. A digest of the protocol: as §1
Another data set deals with Enterococcus faecalis. Description: MIC, agar dilution, Enterococcus faecalis. The class given is cell-based. The note with it: Enterococcus faecalis; strain UC694; read-out: MIC. The essentials: as §2
In another data set the test system is Streptococcus agalactiae. In words: MIC, agar dilution, Streptococcus agalactiae. The note with it: Streptococcus agalactiae, read-out: MIC. It is filed as cell-based. The essentials: as §1
For data set [5], the system named is Salmonella typhimurium. In words: Systemic infection model in mice, ED50, Salmonella typhimurium. It is filed as in vivo. The note with it: Salmonella enterica, TYPHIMURIUM / UC6164, sc, 144 h, strain UC6164, lactamase producing, subcutaneous, 0, 24, 48 hours post infection, 50% survival six days post infection, per day, read-out: ED50 (95% confidence limits). The protocol:
(§3) Experimental Infections and Antitiotic Treatment (for ED50 in mice tests).
(§4) Mice are infected and treated with the test antibiotic compound according to procedures described previously [Yancey, Jr., R. J. et at. supra].
(§5) The test antibiotic compound is administered subcutaneously immediately following infection, then at 24 hours and 48 hours post infection. The medium effective dose (ED50) number is determined for all infections. The ED50 value is defined as the calculated concentration of the test antibiotic compound in mg. of compound per kilogram of mouse body weight per day at which 50% of the animals survived six days post infection.

The next data set deals with P. hemolytica. In words: Systemic infection model in mice, ED50, P. hemolytica. The following applies: Mus musculus, sc, 144 h, strain UC6532, lactamase producing, subcutaneous, 0, 24, 48 hours post infection, 50% survival six days post infection, per day, read-out: ED50 (95% confidence limits). The class given is in vivo. As to the method: as §3, §4, §5
Where [6] appears, read: CHOLERAESUIS / UC6073, strain UC6073.
Where [7] appears, read: CHOLERAESUIS / UC6077, strain UC6077.
The mark [8] stands for this setting: TYPHIMURIUM / UC6162, strain UC6162.
Where [9] appears, read: TYPHIMURIUM / UC6164, strain UC6164.

≈ marks a conversion by molar mass, not a printed value. Like-named read-outs stand apart in the source and are kept apart here.

Regarding `CO/N=C(\C(=O)N[C@@H]1C(=O)N2C(C(=O)O)=C(CSCC(N)=O)CS[C@H]12)c1csc(N)n1` [Example 7, 7-[2-(2-amino-1,3-thiazol-4-yl)-2-(methoxyimino)acetamido]-3-(aminocarbonylmethylthiomethyl)-3-cephem-4-carboxylic acid], the MIC (as a rule, the lowest concentration found to suppress growth) was above 32 µg/mL in data set [1]; 16 µg/mL (≈ 32.9 µM) in the data set with Corynebacterium pyogenes; 4 µg/mL (≈ 8.22 µM) with Staphylococcus aureus (strain UC6093); 4 µg/mL (≈ 8.22 µM) in the data set on Staphylococcus aureus (strain UC6097); 4 µg/mL (≈ 8.22 µM) in the data set on Staphylococcus aureus (strain UC9203); at most 0.06 µg/mL in the data set on Pasteurella multocida. Further, the MIC is 0.13 µg/mL (≈ 0.267 µM) in the data set with Streptococcus bovis; at most 0.06 µg/mL in data set [2]; 1 µg/mL (≈ 2.06 µM) with Salmonella choleraesuis (setting [6]); 2 µg/mL (≈ 4.11 µM) with Salmonella choleraesuis (setting [7]); 1 µg/mL (≈ 2.06 µM) in the data set on Salmonella typhimurium [3] (setting [8]); 1 µg/mL (≈ 2.06 µM) with Salmonella typhimurium [3] (setting [9]). Besides, the MIC with Pseudomonas aeruginosa is above 32 µg/mL; in the data set on Streptococcus uberis (strain UC3946), 0.13 µg/mL (≈ 0.267 µM); with Streptococcus uberis (strain UC6159), 32 µg/mL (≈ 65.8 µM); in the data set on Enterococcus faecium, above 32 µg/mL; in the data set with Escherichia coli (strain UC3784), 1 µg/mL (≈ 2.06 µM); in the data set with Escherichia coli (strain UC6720), 1 µg/mL (≈ 2.06 µM). Also, the MIC is 1 µg/mL (≈ 2.06 µM) in the data set on Escherichia coli (strain UC9670); 0.25 µg/mL (≈ 0.514 µM) in the data set with Micrococcus luteus; at most 0.06 µg/mL with Pasteurella hemolytica (strain UC6531); at most 0.06 µg/mL with Pasteurella hemolytica (strain UC6532); at most 0.06 µg/mL in the data set with Pasteurella hemolytica (strain UC9582); 0.13 µg/mL (≈ 0.267 µM) in the data set on Streptococcus suis. In addition, the MIC in the data set on Enterococcus faecalis was above 32 µg/mL; in the data set on Streptococcus agalactiae (strain UC3947) it was at most 0.06 µg/mL; in the data set on Streptococcus agalactiae (strain UC6892), at most 0.06 µg/mL. In data set [4], the serum half life entry was “longer serum half life”.

Take `CO/N=C(\C(=O)N[C@@H]1C(=O)N2C(C(=O)O)=C(CSSC3CCCCC3)CS[C@H]12)c1csc(N)n1` [Example 19]: the MIC in [1] is above 32 µg/mL; with Corynebacterium pyogenes it was 0.5 µg/mL (≈ 0.92 µM); in the data set with Staphylococcus aureus (strain UC6093), 1 µg/mL (≈ 1.84 µM); in the data set on Staphylococcus aureus (strain UC6097) it was 1 µg/mL (≈ 1.84 µM); in the data set on Staphylococcus aureus (strain UC9203), 1 µg/mL (≈ 1.84 µM); with Pasteurella multocida, at most 0.06 µg/mL. For the same compound, the MIC with Streptococcus bovis is at most 0.06 µg/mL; in data set [2], at most 0.06 µg/mL; in the data set with Salmonella choleraesuis (setting [6]), 8 µg/mL (≈ 14.7 µM); in the data set on Salmonella choleraesuis (setting [7]), 16 µg/mL (≈ 29.4 µM); with Salmonella typhimurium [3] (setting [8]), 16 µg/mL (≈ 29.4 µM); in the data set on Salmonella typhimurium [3] (setting [9]), 16 µg/mL (≈ 29.4 µM). In addition, the MIC in the data set on Pseudomonas aeruginosa was above 32 µg/mL; with Streptococcus uberis (strain UC3946), 0.13 µg/mL (≈ 0.239 µM); in the data set on Streptococcus uberis (strain UC6159), 8 µg/mL (≈ 14.7 µM); in the data set on Enterococcus faecium, above 32 µg/mL; in the data set on Escherichia coli (strain UC3784), 4 µg/mL (≈ 7.36 µM); in the data set on Escherichia coli (strain UC6720), 8 µg/mL (≈ 14.7 µM). The MIC in the data set on Escherichia coli (strain UC9670) was 4 µg/mL (≈ 7.36 µM); in the data set on Micrococcus luteus, at most 0.06 µg/mL; in the data set on Pasteurella hemolytica (strain UC6531), 0.5 µg/mL (≈ 0.92 µM); in the data set with Pasteurella hemolytica (strain UC6532), 0.5 µg/mL (≈ 0.92 µM); in the data set with Pasteurella hemolytica (strain UC9582), 0.25 µg/mL (≈ 0.46 µM); in the data set with Streptococcus suis it was at most 0.06 µg/mL. In addition, the figures for the MIC in the data set with Enterococcus faecalis, in the data set on Streptococcus agalactiae (strain UC3947) and in the data set on Streptococcus agalactiae (strain UC6892) were above 32 µg/mL, at most 0.06 µg/mL and at most 0.06 µg/mL, respectively.

For `CC1(C)S[C@@H]2[C@H](NC(=O)[C@H](N)c3ccccc3)C(=O)N2[C@H]1C(=O)O` [ampicillin], the ED50 in the data set on Salmonella typhimurium [5] and with P. hemolytica was above 100 mg/kg throughout.
